The nature of experiment [1]: Inhibition of human recombinant Cathepsin L-like protease using Z-FR-AMC as substrate preincubated for 30 mins followed by substrate addition and measured after 1.5 hrs by fluorescence based analysis.
Experiment [2] deals with Replicase polyprotein 1ab (Severe acute respiratory syndrome coronavirus 2, UniProt P0DTD1). Briefly: Inhibition of recombinant SARS-CoV-2 3CLpro using MCA-AVLQSGFR-Lys(Dnp)-Lys-NH2 as substrate incubated for 1.5 hrs by fluorescence based analysis.

IC50 data for 44 compounds are collected here from ChEMBL document CHEMBL6120945, “Peptidomimetic Analogues Act as Effective Inhibitors against SARS-CoV-2 by Blocking the Function of Cathepsin L” (J Med Chem, 2024).

Where a SMILES comes first, the peptide text is derived from it. [ ]: non-standard residue; d: D form. The star is where a group is joined. ξ: configuration not given here. Hydrocinnamoyl = O=C(CCc1ccccc1)*; ξF = NC(Cc1ccccc1)C(=O)O; Cbz = O=C(OCc1ccccc1)*; Hexanoyl = CCCCCC(=O)*; Boc = CC(C)(C)OC(=O)*; Butyryl = CCCC(=O)*; Bz = O=C(c1ccccc1)* A value given as a limit tells only on which side of the number the result lay.

As for `CCC(=O)[C@H](Cc1ccccc1)NC(=O)[C@H](CC(C)C)NC(=O)/C=C/c1ccccc1`, the IC50 (commonly the concentration at which inhibition is half-maximal) in experiment [1] is more than 1000 nM; in experiment [2] it was more than 10000 nM.

Take `CCCCCC(=O)N[C@@H](CC(C)C)C(=O)N[C@H](C=O)Cc1ccccc1` (Hexanoyl-Leu-Phe-aldehyde): the IC50 was 34.6 nM in experiment [1] and more than 10000 nM in experiment [2]. On the same counts, the results for `COc1ccc(C[C@@H](C=O)NC(=O)[C@H](CC(C)C)NC(=O)/C=C/c2ccccc2)cc1` are 131 nM and more than 10000 nM. Taken in the same sequence, the figures for `CC(C)C[C@H](NC(=O)/C=C/c1ccccc1)C(=O)N[C@H](C=O)CCc1ccccc1` were 26 nM and more than 10000 nM. On the same counts, the results for `CC(C)C[C@H](NC(=O)c1ccsc1)C(=O)N[C@H](C=O)Cc1ccccc1` are 8.15 nM and more than 10000 nM.

Take `CC(C)C[C@H](NC(=O)c1ccc(F)cc1)C(=O)N[C@H](C=O)Cc1ccccc1`: the IC50 in experiment [1] is 9.85 nM; in experiment [2] it was more than 10000 nM. On the same counts, the results for `COc1ccc(/C=C/C(=O)N[C@@H](CC(C)C)C(=O)N[C@H](C=O)Cc2ccccc2)cc1` are 55.4 nM and more than 10000 nM. On the same counts, the results for `CC(C)C[C@H](NC(=O)c1ccccc1F)C(=O)N[C@H](C=O)Cc1ccccc1` are 9.66 nM and more than 10000 nM.

In the case of `COc1ccc(C(=O)N[C@@H](CC(C)C)C(=O)N[C@H](C=O)Cc2ccccc2)cc1`, the IC50 in experiment [1] is 6.06 nM; in experiment [2] it was more than 10000 nM. Taken in the same sequence, the figures for `CC(C)C[C@H](NC(=O)CCc1ccccc1)C(=O)N[C@H](C=O)Cc1ccccc1` (Hydrocinnamoyl-Leu-Phe-aldehyde) were 18.2 nM and more than 10000 nM. On the same counts, the results for `CC(C)C[C@H](NC(=O)c1ccc(Br)cc1)C(=O)N[C@H](C=O)Cc1ccccc1` are 9.59 nM and more than 10000 nM.

As for `CC(C)C[C@H](NC(=O)/C=C/c1ccccc1Cl)C(=O)N[C@H](C=O)Cc1ccccc1`, the IC50 in experiment [1] was 9.57 nM; in experiment [2] it was more than 10000 nM. Taken in the same sequence, the figures for `CC(C)C[C@H](NC(=O)C1CCC(F)(F)CC1)C(=O)N[C@H](C=O)Cc1ccccc1` were 6.29 nM and more than 10000 nM.

As to `CC(C)C[C@H](NC(=O)c1ccncc1)C(=O)N[C@H](C=O)Cc1ccccc1`, the IC50 in experiment [1] was 8.46 nM; in experiment [2] it was more than 10000 nM. On the same counts, the results for `CC(C)C[C@H](NC(=O)OC(C)(C)C)C(=O)N[C@H](C=O)Cc1ccccc1` (Boc-Leu-Phe-aldehyde) are 165 nM and more than 10000 nM. On the same counts, the results for `CC(C)C[C@H](NC(=O)c1cccc(F)c1)C(=O)N[C@H](C=O)Cc1ccccc1` are 7.5 nM and more than 10000 nM. Taken in the same sequence, the figures for `O=C[C@H](Cc1ccccc1)NC(=O)[C@H](CC1CCCCC1)NC(=O)/C=C/c1ccccc1` were 53 nM and more than 10000 nM. `CC(C)C[C@H](NC(=O)/C=C/c1ccc(Cl)cc1)C(=O)N[C@H](C=O)Cc1ccccc1`: the IC50 in experiment [1] is 23.5 nM; in experiment [2], more than 10000 nM.

`O=C[C@H](Cc1ccccc1)NC(=O)[C@H](Cc1ccccc1)NC(=O)/C=C/c1ccccc1`: the 50% inhibitory concentration (IC50) in experiment [1] was 6.65 nM; in experiment [2], more than 10000 nM. On the same counts, the results for `CC(C)C[C@H](NC(=O)/C=C/c1ccccc1)C(=O)N[C@H](C=O)Cc1ccc(F)cc1` are 74.1 nM and more than 10000 nM.

On to `CC(C)C[C@H](NC(=O)c1ccc(-c2ccccc2)cc1)C(=O)N[C@H](C=O)Cc1ccccc1`, for which the half-inhibitory concentration (IC50) in experiment [1] is 20.9 nM; in experiment [2], more than 10000 nM. Taken in the same sequence, the figures for `CSCC[C@@H](C=O)NC(=O)[C@H](CC(C)C)NC(=O)/C=C/c1ccccc1` were 29.4 nM and more than 10000 nM. On the same counts, the results for `CC(C)C[C@H](NC(=O)/C=C/c1ccccc1)C(=O)N[C@H](C=O)Cc1ccc([N+](=O)[O-])cc1` are 345 nM and more than 10000 nM.

On to `CC(C)C[C@H](NC(=O)c1cccc2ccccc12)C(=O)N[C@H](C=O)Cc1ccccc1`, for which the IC50 in experiment [1] was 1.26 nM; in experiment [2], more than 10000 nM. On the same counts, the results for `CC(C)C[C@H](NC(=O)C1CCOCC1)C(=O)N[C@H](C=O)Cc1ccccc1` are 20.2 nM and more than 10000 nM. Taken in the same sequence, the figures for `CC(C)C[C@H](NC(=O)/C=C/c1ccc(Br)cc1)C(=O)N[C@H](C=O)Cc1ccccc1` were 38.4 nM and more than 10000 nM. As to `CC(C)C[C@H](NC(=O)c1ccoc1)C(=O)N[C@H](C=O)Cc1ccccc1`, the IC50 in experiment [1] is 24.2 nM; in experiment [2], more than 10000 nM. Taken in the same sequence, the figures for `CC(C)C[C@H](NC(=O)/C=C/c1ccc(F)cc1)C(=O)N[C@H](C=O)Cc1ccccc1` were 20.1 nM and more than 10000 nM. Taken in the same sequence, the figures for `CC(C)C[C@H](NC(=O)/C=C/c1ccccc1)C(=O)N[C@H](C=O)Cc1ccccc1Cl` were 58 nM and more than 10000 nM. Taken in the same sequence, the figures for `O=C[C@H](Cc1ccccc1)NC(=O)[C@H](Cc1ccc(Cl)cc1)NC(=O)/C=C/c1ccccc1` were 8.91 nM and more than 10000 nM.

Take `O=C[C@H](Cc1ccccc1)NC(=O)[C@H](Cc1ccc(F)cc1)NC(=O)/C=C/c1ccccc1`: the IC50 is 6.68 nM in experiment [1] and more than 10000 nM in experiment [2]. On the same counts, the results for `CCCC(=O)N[C@@H](CC(C)C)C(=O)N[C@H](C=O)Cc1ccccc1` (Butyryl-Leu-Phe-aldehyde) are 72.7 nM and more than 10000 nM.

As for `CC(C)C[C@H](NC(=O)/C=C/c1ccccc1F)C(=O)N[C@H](C=O)Cc1ccccc1`, the IC50 in experiment [1] was 16.5 nM; in experiment [2], more than 10000 nM. On the same counts, the results for `CC(C)C[C@H](NC(=O)OCc1ccccc1)C(=O)N[C@H](C=O)Cc1ccccc1` (Cbz-Leu-Phe-aldehyde) are 9.88 nM and more than 10000 nM. Taken in the same sequence, the figures for `CC(C)C[C@H](NC(=O)/C=C/c1ccccc1)C(=O)N[C@H](C=O)Cc1ccc(C(F)(F)F)cc1` were 253 nM and more than 10000 nM. On the same counts, the results for `CC(C)C[C@H](NC(=O)c1ccccn1)C(=O)N[C@H](C=O)Cc1ccccc1` are 26.4 nM and more than 10000 nM.

Take `CC(C)C[C@H](NC(=O)c1ccccc1)C(=O)N[C@H](C=O)Cc1ccccc1` (Bz-Leu-Phe-aldehyde): the IC50 in experiment [1] is 7.56 nM; in experiment [2], more than 10000 nM. On the same counts, the results for `CC(C)C[C@H](NC(=O)/C=C/c1ccccc1)C(=O)N[C@H](C=O)Cc1ccccc1Br` are 180 nM and more than 10000 nM. On the same counts, the results for `CC(C)C[C@H](NC(=O)/C=C/c1cccc(F)c1)C(=O)N[C@H](C=O)Cc1ccccc1` are 46.2 nM and more than 10000 nM.

For the compound `CC(C)C[C@H](NC(=O)Cc1c[nH]c2ccccc12)C(=O)N[C@H](C=O)Cc1ccccc1`, the figures for the IC50 in experiment [1] and in experiment [2] were 3.18 nM and more than 10000 nM, respectively. On the same counts, the results for `CC(C)C[C@H](NC(=O)c1cc[nH]c1)C(=O)N[C@H](C=O)Cc1ccccc1` are 37.3 nM and more than 10000 nM.

Take `C=CC(=O)[C@H](Cc1ccccc1)NC(=O)[C@H](CC(C)C)NC(=O)/C=C/c1ccccc1`: the figures for the IC50 in experiment [1] and in experiment [2] were more than 1000 nM and more than 10000 nM, respectively. With `CC(C)C[C@H](NC(=O)/C=C/c1ccccc1)C(=O)N[C@@H](Cc1ccccc1)C(N)=O`, the IC50 was more than 1000 nM in experiment [1] and more than 10000 nM in experiment [2].

Turning to `CC(C)[C@H](NC(=O)OCc1ccccc1)C(=O)NC(C=O)Cc1ccccc1` (stereo partly drawn) (Cbz-Val-[ξF]-aldehyde), in experiment [1], the IC50 is 19900 nM.
